According to patent publication US7412284B2, “Apparatus for electroporation mediated delivery for drugs and genes” (Genetronics, Inc., priority 1997, dated 2008):
“Also recorded” adds a separate entry of the source. Marks after values point to notes of the source that are not given here.

Test system: poorly differentiated human pancreatic tumor (Panc-3)
Assay: EPT with bleomycin of Panc-3 tumors xenografted in nude mice
Type: in vivo, nude mouse
Details: for Complete Regression (100%), number of mice / Death, number of mice / No Response, number of mice / Partial Regression (≧80%), number of mice / Tumor regrowth, number of mice: of 25 mice treated; for Tumor volume (mm^3) T1: treated mouse T1; for Tumor volume (mm^3) T2: treated mouse T2
Description: The single treatment procedure involved injection of bleomycin (0.5 units in 0.15 ml saline) intratumorally, using fanning, as described herein followed by application of six square wave electrical pulses, ten minutes later, using needle array electrodes as described in the present application, arranged along the circumference of a circle 1 cm in diameter. Needle array of variable diameters (e.g., 0.5 cm, 0.75 cm and 1.5 cm can also be used to accommodate tumors of various sizes. Stoppers of various heights can be inserted at the center of the array to make the penetration depth of the needles into the tumor variable. A built-in mechanism allowed switching of electrodes for maximum coverage of the tumor by the pulsed field. The electrical parameters were: 780 V/cm center field strength and 6×99 μs pulses spaced at 1 sec interval.
The tumor cell line Panc-3, a poorly differentiated adenocarcinoma cell line of the pancreas, was supplied by AntiCancer, Inc., San Diego. For EPT experiments, tissue taken from the stock mice, where the tumor line was maintained, was thawed and cut into very small pieces about 1 mm each, and 8-10 pieces were surgically xenografted in a subcutaneous sac made in left flank of nude mice, and then closed with 6.0 surgical suture. […] The tumor dimensions were measured and the tumor volume calculated using the formula: (II/6)×a×b×c where a, b, and c a are, respectively, the length, width and thickness of the tumor. 0.5 units Bleomycin (Sigma Chemicals) was dissolved in 0.15 ml of 0.9% NaCl and was injected in each mice intratumorally by fanning for both the control (D+E−) and the treated (D+E+) groups. Ten minutes after the injection, each mouse in the D+E+ group was pulsed from a BTX T820 square wave electroporator with a set of needle array electrodes as described in the present invention. Electrical parameters used were as follows: field strength 1300 V/cm, 6 pulses of 99 μs each, at 1 sec interval.
The mice were monitored every day for mortality and any signs of a diseased state were noted. The tumor dimensions were measured at regular intervals and tumor growth regression/progression monitored.

Q: For bleomycin, which “treated mice with no response” value (2/25) is on record?
A: 8%

Q: And the “treated mice that died” value (20 days after treatment, 1/25)?
A: 4%

Q: What about the “treated mice with partial (>80%) regression” value (28 days following treatment, 5/25) of the same substance?
A: 20%

Q: And the “treated mice with complete tumor regression” value (28 days following treatment, 17/25)?
A: 68%

Q: What about the “mice with tumor regrowth” value (35 days after treatment, at a much slower rate) of the same substance?
A: 8%

Q: What about the “histology of tumor samples” value (D+E+ group, 35 days after the treatment) of the same substance?
A: necrotic tumor cell ghosts; also recorded: severe necrosis of the tumor region

Q: And the “histology of samples from tumor site” value (after 120 days)?
A: complete absence of tumor cells

Q: And the “cases with no palpable tumor” value (after 120 days of the treatment, 16/25)?
A: 64%

Q: What about the “necrosis and edema at the treatment site” value (bleomycin 0.5 units intratumoral + pulses) of the same substance?
A: severe necrosis and edema in nearly all the mice

Q: What about the tumor volume (control group D+E− (drug, no pulsing)) of the same substance?
A: increased dramatically

Q: What about the “Complete Regression (100%), number of mice” value (“Complete Regression (100%)” for short) (28 days after treatment) of the same substance?
A: 17

Q: What about the “Death, number of mice” value (28 days after treatment) of the same substance?
A: 1

Q: And the “No Response, number of mice” value (28 days after treatment)?
A: 2

Q: And the “Partial Regression (≧80%), number of mice” value (“Partial Regression (≧80%)” below) (28 days after treatment)?
A: 5

Q: What about the “Complete Regression (100%)” value (35 days after treatment) of the same substance?
A: 16

Q: And the “No Response, number of mice” value (35 days after treatment)?
A: 2

Q: And the “Partial Regression (≧80%)” value (35 days after treatment)?
A: 3

Q: And the “Complete Regression (100%)” value (57 days after treatment)?
A: 16

Q: And the “Partial Regression (≧80%)” value (57 days after treatment)?
A: 3

Q: And the “Tumor regrowth, number of mice” value (57 days after treatment)?
A: 2

Q: What about the “No Response, number of mice” value (57 days after treatment, footnote a: mice sacrificed due to increased tumor burden) of the same substance?
A: 1^a

Q: What about the “Complete Regression (100%)” value (84 days after treatment) of the same substance?
A: 16

Q: And the “No Response, number of mice” value (84 days after treatment)?
A: 1

Q: And the “Partial Regression (≧80%)” value (84 days after treatment)?
A: 3

Q: What about the “Death, number of mice” value (84 days after treatment, 1 died after treatment, 1 with no palpable tumor died after 64 days) of the same substance?
A: 2^b

Q: And the “Complete Regression (100%)” value (94 days after treatment)?
A: 16

Q: What about the “No Response, number of mice” value (94 days after treatment) of the same substance?
A: 1

Q: And the “Partial Regression (≧80%)” value (94 days after treatment)?
A: 3

Q: What about the “Tumor regrowth, number of mice” value (94 days after treatment, footnote d: secondary metastatic tumor) of the same substance?
A: 1^d

Q: What about the “Complete Regression (100%)” value (120 days after treatment) of the same substance?
A: 16

Q: And the “Partial Regression (≧80%)” value (120 days after treatment, footnote e: fibrous tissue)?
A: 3^e

Q: What about the “time monitored to be without tumors” value (representative animals (2/17), then euthanized) of the same substance?
A: 243 days

Q: What about the tumor volume (treated group D+E+ (drug + electrical field)) of the same substance?
A: substantial reduction in the tumor volume

Q: What about the detectable tumor (treated mice, after approximately 24 days) of the same substance?
A: essentially no detectable tumor

Q: And the “Tumor volume (mm^3) T1” value (0 days after treatment)?
A: 123.110 mm^3

Q: And the “Tumor volume (mm^3) T1” value (1 day after treatment)?
A: 210.950 mm^3

Q: And the “Tumor volume (mm^3) T1” value (8 days after treatment)?
A: 104.550 mm^3

Q: What about the “Tumor volume (mm^3) T1” value (15 days after treatment) of the same substance?
A: 113.210 mm^3

Q: What about the “Tumor volume (mm^3) T1” value (18 days after treatment) of the same substance?
A: 161.730 mm^3

Q: What about the “Tumor volume (mm^3) T1” value (24 days after treatment) of the same substance?
A: 41.560 mm^3

Q: And the “Tumor volume (mm^3) T1” value (28 days after treatment)?
A: 0 mm^3

Q: And the “Tumor volume (mm^3) T1” value (35 days after treatment)?
A: 0 mm^3

Q: And the “Tumor volume (mm^3) T1” value (38 days after treatment)?
A: 0 mm^3

Q: What about the “Tumor volume (mm^3) T1” value (43 days after treatment) of the same substance?
A: 0 mm^3

Q: What about the “Tumor volume (mm^3) T2” value (0 days after treatment) of the same substance?
A: 178.370 mm^3

Q: And the “Tumor volume (mm^3) T2” value (1 day after treatment)?
A: 252.720 mm^3

Q: And the “Tumor volume (mm^3) T2” value (8 days after treatment)?
A: 211.110 mm^3

Q: And the “Tumor volume (mm^3) T2” value (15 days after treatment)?
A: 226.966 mm^3

Q: And the “Tumor volume (mm^3) T2” value (18 days after treatment)?
A: 246.910 mm^3

Q: And the “Tumor volume (mm^3) T2” value (24 days after treatment)?
A: 47.223 mm^3

Q: And the “Tumor volume (mm^3) T2” value (28 days after treatment)?
A: 0 mm^3

Q: What about the “Tumor volume (mm^3) T2” value (35 days after treatment) of the same substance?
A: 0 mm^3

Q: And the “Tumor volume (mm^3) T2” value (38 days after treatment)?
A: 0 mm^3

Q: And the “Tumor volume (mm^3) T2” value (43 days after treatment)?
A: 0 mm^3
